From BindingDB's records for doi:10.1021/acs.jmedchem.0c01754 (Astrazeneca, 2020)

Biological target: Cyclin-T1/Cyclin-dependent kinase 9 (Homo sapiens, UniProt O60563+P50750)
Test: Inhibition of recombinant full length human N-terminal GST-fused CDK9 (1 to 372 residues)/His-tagged CyclinT1 (1 to 726 residues) expressed in baculovirus infected insect cells using FITC-X-GSRTPMY-NH2 as substrate preincubated for 10 mins followed by MgCl2 addition and measured after 90 mins in presence of 5 mM ATP by mobility shift assay

Sequence of Cyclin-T1/Cyclin-dependent kinase 9 (O60563 whole entry, the tested form may be a part): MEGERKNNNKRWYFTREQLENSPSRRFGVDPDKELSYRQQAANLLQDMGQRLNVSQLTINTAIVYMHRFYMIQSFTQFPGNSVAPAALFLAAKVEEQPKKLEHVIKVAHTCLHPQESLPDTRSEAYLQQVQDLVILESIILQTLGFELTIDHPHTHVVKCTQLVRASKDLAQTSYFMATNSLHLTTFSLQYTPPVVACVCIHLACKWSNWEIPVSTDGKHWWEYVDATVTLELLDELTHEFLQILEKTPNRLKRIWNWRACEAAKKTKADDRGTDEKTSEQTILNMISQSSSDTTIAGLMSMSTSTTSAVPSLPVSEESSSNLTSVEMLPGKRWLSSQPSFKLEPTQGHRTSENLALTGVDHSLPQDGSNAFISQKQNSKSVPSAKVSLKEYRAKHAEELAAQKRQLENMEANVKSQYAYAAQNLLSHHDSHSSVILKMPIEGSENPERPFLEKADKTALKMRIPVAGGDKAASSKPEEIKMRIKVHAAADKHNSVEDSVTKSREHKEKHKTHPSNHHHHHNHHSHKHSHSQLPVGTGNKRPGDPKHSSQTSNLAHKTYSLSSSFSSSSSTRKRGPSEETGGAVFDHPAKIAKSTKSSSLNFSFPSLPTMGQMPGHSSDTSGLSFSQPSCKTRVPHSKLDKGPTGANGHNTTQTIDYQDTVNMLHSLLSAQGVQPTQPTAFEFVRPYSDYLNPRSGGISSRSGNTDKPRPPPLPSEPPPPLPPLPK
Sequence of Cyclin-T1/Cyclin-dependent kinase 9 (P50750 whole entry, the tested form may be a part): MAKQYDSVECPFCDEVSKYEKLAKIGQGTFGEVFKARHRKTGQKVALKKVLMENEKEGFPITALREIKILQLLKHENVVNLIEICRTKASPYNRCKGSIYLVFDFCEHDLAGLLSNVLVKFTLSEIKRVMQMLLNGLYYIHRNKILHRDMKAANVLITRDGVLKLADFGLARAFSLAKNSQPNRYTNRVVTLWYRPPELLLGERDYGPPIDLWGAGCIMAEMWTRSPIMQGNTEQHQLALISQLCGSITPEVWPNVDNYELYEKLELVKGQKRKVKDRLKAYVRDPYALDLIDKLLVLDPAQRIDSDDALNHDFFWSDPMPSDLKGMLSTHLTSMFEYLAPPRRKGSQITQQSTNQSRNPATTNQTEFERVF

| SMILES | IC50 [nM] |
| --- | --- |
| CC(=O)N[C@@H]1CCC[C@H](C(=O)Nc2cc(-c3cnn4c3NCCC4)c(Cl)cn2)C1 [US10717746, Example 15] | 350 |
| CC(=O)N[C@@H]1CCC[C@H](C(=O)Nc2cc(-c3cnn4c3CC(C)(C)C4)c(F)cn2)C1 [US10717746, Example 25] | 4 |
| CC1(C)Cc2c(-c3cc(NC(=O)[C@H]4C[C@@H](O)C4)ncc3Cl)cnn2C1 [US10717746, Example 27] | 25 |
| CC(=O)N[C@@H]1CCC[C@H](C(=O)Nc2cc(-c3cnn4c3CC(C)(C)C4)c(C#N)cn2)C1 [US10717746, Example 39] | 62 |
| CC(=O)N[C@@H]1CCC[C@H](C(=O)Nc2cc(-c3cnn4c3CC(C)(C)CC4)ccn2)C1 [US10717746, Example 44] | 8 |
| CC(=O)N[C@@H]1CC[C@H](C(=O)Nc2cc(-c3cnn4c3CC(C)(C)C4)c(Cl)cn2)C1 [US10717746, Example 48] | 3 |
| CC(=O)N[C@@H]1CCC[C@H](C(=O)Nc2cc(-c3cnn4c3CCCC4)c(F)cn2)C1 [US10717746, Example 63] | 51 |
| CC(=O)N[C@@H]1CCC[C@H](C(=O)Nc2cc(-c3cnn4c3CCCCC4)c(Cl)cn2)C1 [US10717746, Example 66] | 23 |
| CC(=O)N[C@@H]1CCC[C@H](C(=O)Nc2cc(-c3cnn4c3CCCC4O)c(Cl)cn2)C1 (stereo partly specified) [US10717746, Example 78] | 60 |
| CC(=O)N[C@@H]1CCC[C@H](C(=O)Nc2cc(-c3cn[nH]c3CCCCO)c(Cl)cn2)C1 [US10717746, Example 78a] | 85 |
| CC(=O)N[C@@H]1CCC[C@H](C(=O)Nc2cc(-c3cn[nH]c3CC(C)(C)CO)c(Cl)cn2)C1 [US10717746, Example 82a] | 139 |
